# Assay results from patent publication US9932561B2, “Differentiating induced pluripotent stem cells into glucose-responsive, insulin-secreting progeny” (Mayo Foundation for Medical Education and Research, priority 2011, dated 2018).
# Where no end group is shown, it is not given here.
# Tests used:
# Assay type in all cases: cell-based, human
# [1] = tested on: iPS-derived pancreatic endoderm cells; assay: RT-PCR of pancreatic hormone and islet marker genes during guided differentiation; settings: following inclusion of GLP-1 with HGF, IGF and DAPT
# Method: (R&D systems) and 100 ng/mL activin A (Peprotech) in advanced RPMI (A-RPMI, Invitrogen) with Pen/Strep for 1 day, followed by treatment with 100 ng/mL activin A in A-RPMI supplemented with 0.2% FBS (Invitrogen) for two days. At step two, cells were cultured in A-RPMI medium containing 50 ng/mL FGF10 (R&D systems), 0.25 μM KAAD-cyclopamine (CYC), and 2% FBS for 2 days. Cells were then treated with 50 ng/mL FGF10, 0.25 μM CYC, and 2 μM all-trans Retinoic Acid (RA) (Sigma) in DMEM (Invitrogen) supplemented with Pen/Strep, 1× B27 supplement (Invitrogen) for 4 days at step three. Cells were then cultured in the presence of 50 ng/mL FGF10, 300 nM ILV (Axxora), and 55 nM GLP-1 (Sigma) in DMEM with 1 × B27 for 4 days at step four. In step five, differentiation medium included 10 μM DAPT (Sigma) and 55 nM GLP-1 in DMEM with 1× B27 and culture lasted 6 days. […]
# To determine the expression of endocrine-specific transcription factors and pancreas-specific genes throughout differentiation, the gene expression pattern was analyzed at each stage of differentiation. RT-PCR detected high levels of FOXA2 expression after 3 days of differentiation, confirming induction of definitive endoderm cells (FIG. 8A). […]
# [2] = tested on: iPS-derived islet-like clusters; assay: C-peptide release assay, glucose stimulated secretion, ELISA; settings: for C-peptide secretion in response to glucose challenge when the agent is left out of the cocktail: HCF#1-derived islet-like clusters differentiated without ILV or without GLP-1, glucose 10 mM and 27.7 mM
# Method: (R&D systems) and 100 ng/mL activin A (Peprotech) in advanced RPMI (A-RPMI, Invitrogen) with Pen/Strep for 1 day, followed by treatment with 100 ng/mL activin A in A-RPMI supplemented with 0.2% FBS (Invitrogen) for two days. At step two, cells were cultured in A-RPMI medium containing 50 ng/mL FGF10 (R&D systems), 0.25 μM KAAD-cyclopamine (CYC), and 2% FBS for 2 days. Cells were then treated with 50 ng/mL FGF10, 0.25 μM CYC, and 2 μM all-trans Retinoic Acid (RA) (Sigma) in DMEM (Invitrogen) supplemented with Pen/Strep, 1× B27 supplement (Invitrogen) for 4 days at step three. Cells were then cultured in the presence of 50 ng/mL FGF10, 300 nM ILV (Axxora), and 55 nM GLP-1 (Sigma) in DMEM with 1 × B27 for 4 days at step four. In step five, differentiation medium included 10 μM DAPT (Sigma) and 55 nM GLP-1 in DMEM with 1× B27 and culture lasted 6 days. Finally, in step six, cells were cultured in the presence of 50 ng/mL hepatocyte growth factor (HGF) (R&D systems), 50 ng/mL Insulin-like growth factor 1 (IGF-1) (R&D systems) and 55 nM GLP-1 in CMRL-1066 medium (Invitrogen) with 1× B27 for 6 days. All experiments were repeated more than three times.
# A C-peptide release assay was performed by incubating derived islet-like clusters in Krebs-Ringer solution with bicarbonate and HEPES (KRBH; 129 mM NaCl, 4.8 mM KCl, 2.5 mM CaCl2, 1.2 mM KH2PO4, 1.2 mM MgSO4, 5 mM NaHCO3, 10 mM HEPES, and 0.1% (wt/vol) BSA). […] C-peptide or proinsulin levels were determined using an ultrasensitive C-peptide/proinsulin ELISA kit (Alpco Diagnostics).
# C-peptide secretion from iPS-derived islet-like clusters in response to glucose challenge, the critical physiological function of pancreatic beta cells, was analyzed. To determine whether islet-like cells are capable of C-peptide secretion in response to glucose induction, cells were exposed to increasing concentrations of glucose and secreted C-peptide was measured by ELISA. […]
# [3] = tested on: iPS-derived definitive endoderm cells; assay: Induction of pancreatic endoderm from iPS-derived definitive endoderm, immunofluorescence for PDX1, NEUROD1, NGN3; settings: definitive endoderm cells treated with FGF10, RA and CYC in the presence of ILV; without ILV low levels of PDX1 expression
# Method: For immunostaining, iPS cells were fixed for 20 minutes at room temperature (RT) in 4% paraformaldehyde (PFA) in PBS, washed in PBS, and blocked for 30 minutes with 5% FBS in PBST (PBS with 0.1% Tween-20 (Sigma). Cells were stained with primary antibodies overnight at 4° C., rinsed by PBS, and incubated with secondary antibodies 1 hour at RT (Martinez-Fernandez et al., Circ. Res., 105:648-656 (2009)). Cells at different stages of differentiation were fixed and stained with primary and secondary antibodies. Primary and secondary antibodies used for characterization of iPS and derived cells were: SSEA-1, SSEA-4, TRA-1-60, TRA-1-81 (Millipore #SCR001), OCT4 (Cell Signaling Technology #2750), SOX2 (Cell Signaling Technology #2748), KLF4 (Abcam #ab26648), NANOG (Abcam #ab21624), mouse anti-S0X17 (R&D Systems #MAB1924), rabbit anti-HNF3 beta/FOXA2 (Millipore #07-633), rabbit anti-PDX1 (Santa Cruz Biotechnology #sc-25403), rabbit anti-NGN3 (Millipore #AB5684), rabbit anti-NEUROD1 (Abcam #16508), mouse anti-insulin (Sigma #I2018), rabbit anti-C-peptide (Cell Signaling Technology #4593), rabbit anti-Insulin (Cell Signaling Technology #4590), mouse anti-proinsulin C-peptide (Millipore #CBL94), mouse anti-glucagon (Abcam #ab10988), MafA (Santa Cruz Biotechnology #sc-66958), and rabbit anti-somatostatin (Dako #A0566). […]
Compound,gene expression of pancreatic hormones and islet markers by RT-PCR [1],C-peptide secretion in response to glucose challenge when the agent is left out of the cocktail [2],expression of pancreatic endoderm markers [3],"C-peptide secretion ([2]; pancreatic endoderm treated with HGF, IGF, Exendin-4 and DAPT, data not shown)"
"glucagon like peptide-1 (HAEGTFTSDVSSYLEGQAAKEFIAWLVKGR; ends and bridges not checked; UniProt P01275 98-127, looked up) [GLP-1, GLP-1 polypeptide (Sigma), used at 55 nM in the differentiation medium]",positive gene expression of pancreatic hormones,failed to secrete C-peptide,–,–
"CC(C)[C@H]1C(=O)N[C@H](CO)Cc2c[nH]c3cccc(c23)N1C [ILV, indolactam V]",–,failed to secrete C-peptide,"resulted in cells expressing PDX1, NEUROD1, and NGN3",–
Exendin-4,–,–,–,failed produce detectable C-peptide secretion
